What was measured:
[1] = tested on: Human immunodeficiency virus 1; test: Cytotoxicity to HIV-1 IIIB chronically infected Molt-4 cells assayed using tetrazolium based colorimetric assay; type: functional; details: Human immunodeficiency virus 1, MOLT-4
[2] = tested on: Human immunodeficiency virus 1; test: Anti-HIV activity against HIV-1 IIIB chronically infected Molt-4 cells; type: functional, organism-based; details: Human immunodeficiency virus 1, MOLT-4
MOLT-4 = test: Anti-HIV activity against HIV-1 IIIB chronically infected Molt-4 cells; Not active; type: functional, cell-based, Homo sapiens

| SMILES | CC50 [1] | IC50 [2] | IC50 (MOLT-4) |
| --- | --- | --- | --- |
| COc1ccccc1N1CCN(c2c(F)cc3c(=O)c(C(=O)O)cn(C(C)C)c3c2OC(F)F)CC1 | 8.9 µM | 100 nM | – |
| COc1ccccc1N1CCN(c2c(F)cc3c(=O)c(C(=O)O)cn(CCF)c3c2OC(F)F)CC1 | 22 µM | 270 nM | – |
| COc1ccccc1N1CCN(c2c(F)cc3c(=O)c(C(=O)O)cn(CCN(C)C)c3c2OC(F)F)CC1 | > 55 µM | 5600 nM | – |
| O=C(O)c1cn(C2CC2)c2c(OC(F)F)c(N3CCN(c4ccc(F)cc4)CC3)c(F)cc2c1=O | 5.7 µM | 59 nM | – |
| CCn1cc(C(=O)O)c(=O)c2cc(F)c(N3CCN(c4ncccn4)CC3)c(OC(F)F)c21 | 28 µM | 410 nM | – |
| CNn1cc(C(=O)O)c(=O)c2cc(F)c(N3CCN(c4ncccn4)CC3)c(OC(F)F)c21 | > 60 µM | 500 nM | – |
| O=C(O)c1cn(C2CC2)c2c(OC(F)F)c(N3CCN(c4ccccc4)CC3)c(F)cc2c1=O | 8.4 µM | 63 nM | – |
| COc1c(N2CCN(c3ccccn3)CC2)c(F)cc2c(=O)c(C(=O)O)cn(C3CC3)c12 | 26 µM | 1800 nM | – |
| CNn1cc(C(=O)O)c(=O)c2cc(F)c(N3CCN(c4ccccc4OC)CC3)c(OC(F)F)c21 | 19 µM | 350 nM | – |
| O=C(O)c1cn(C2CC2)c2c(F)c(N3CCN(c4ccccn4)CC3)c(F)cc2c1=O | > 50 µM | 50000 nM | – |
| O=C(O)c1cn2c3c(c(N4CCN(c5ccccn5)CC4)c(F)cc3c1=O)OCC2CF (stereo not given) | > 60 µM | 1700 nM | – |
| O=C(O)c1cn(C2CC2)c2c(OC(F)F)c(N3CCN(c4ccccn4)CC3)c(F)cc2c1=O | 15 µM | 250 nM | – |
| CC(C)n1cc(C(=O)O)c(=O)c2cc(F)c(N3CCN(c4ncccn4)CC3)c(OC(F)F)c21 | 31 µM | 230 nM | – |
| CCn1cc(C(=O)O)c(=O)c2cc(F)c(N3CCN(c4ccccc4OC)CC3)c(OC(F)F)c21 | 13 µM | 94 nM | – |
| O=C(O)c1cn(C2CC2)c2c(OC(F)F)c(N3CCN(c4ncccn4)CC3)c(F)cc2c1=O | > 40 µM | 970 nM | – |
| COc1ccccc1N1CCN(c2c(F)cc3c(=O)c(C(=O)O)cn(CCO)c3c2OC(F)F)CC1 | 26 µM | 260 nM | – |
| COc1ccccc1N1CCN(c2c(F)cc3c(=O)c(C(=O)O)cn(C4CC4)c3c2OC(F)F)CC1 | 9.9 µM | 110 nM | – |
| O=C(O)c1cn(C2CC2)c2c(OC(F)F)c(N3CCN(Cc4ccccc4)CC3)c(F)cc2c1=O | 23 µM | – | Not Active |
| COc1ccccc1N1CCN(c2c(F)cc3c(=O)c(C(=O)O)cn(C)c3c2OC(F)F)CC1 | 13 µM | 140 nM | – |
| COc1cccc(N2CCN(c3c(F)cc4c(=O)c(C(=O)O)cn(C5CC5)c4c3OC(F)F)CC2)c1 | 22 µM | 700 nM | – |
| O=C(O)c1cn(CCF)c2c(OC(F)F)c(N3CCN(c4ncccn4)CC3)c(F)cc2c1=O | > 60 µM | 930 nM | – |
| CC1COc2c(N3CCN(c4ccccn4)CC3)c(F)cc3c(=O)c(C(=O)O)cn1c23 (stereo not given) | 39 µM | 3700 nM | – |
| O=C(O)c1cn(C2CC2)c2c(OC(F)F)c(N3CCN(c4ccc(Cl)cc4)CC3)c(F)cc2c1=O | 5.8 µM | 480 nM | – |
| COc1ccccc1N1CCN(c2c(F)cc3c(=O)c(C(=O)O)cn(CCOC(C)=O)c3c2OC(F)F)CC1 | 11 µM | 100 nM | – |
| COc1ccc(N2CCN(c3c(F)cc4c(=O)c(C(=O)O)cn(C5CC5)c4c3OC(F)F)CC2)cc1 | 17 µM | 600 nM | – |
| O=C(O)c1cn(C2CC2)c2c(OC(F)F)c(N3CCNCC3)c(F)cc2c1=O | > 60 µM | > 60000 nM | – |
| O=C(O)c1cn(CCO)c2c(OC(F)F)c(N3CCN(c4ncccn4)CC3)c(F)cc2c1=O | > 60 µM | 790 nM | – |
| CN1CCN(c2c(F)cc3c(=O)c(C(=O)O)cn(C4CC4)c3c2OC(F)F)CC1 | > 60 µM | > 60000 nM | – |
| Cn1cc(C(=O)O)c(=O)c2cc(F)c(N3CCN(c4ncccn4)CC3)c(OC(F)F)c21 | 38 µM | 140 nM | – |
| COc1ccccc1N1CCN(c2c(F)cc3c(=O)c(C(=O)O)cn(CC(=O)O)c3c2OC(F)F)CC1 | > 55 µM | > 55000 nM | – |

Reference: ChEMBL document CHEMBL1131862, “Synthesis and anti-HIV activity of arylpiperazinyl fluoroquinolones: a new class of anti-HIV agents” (Bioorg Med Chem Lett, 1999)
